Earlier results as cited in US6558656B2, “Oral and topical compositions and methods related thereto in the treatment of acne” (priority 2000, dated 2003).
Read-outs that look alike come from different tables or passages of the source. Where no end group is shown, it is not given here.

What was measured:
[1] = test system: BCO, Candida, or Cryptococcus; settings: immunosuppressed mice infected with BCO
Newcastle disease virus = settings: mice infected with the Newcastle disease virus
Candida albicans = settings: mice, injection
[2] = test system: C. albicans, Listeria monocytogenes, Pseudomonas aeruginosa, and Serratia marescens; settings: 5-fluorouracil (5FU)- or morphine-immunosuppressed mice, injection

In the case of CC(C)(CO)[C@@H](O)C(=O)NCCC(=O)O [Pantothenic acid], the effectiveness in acne (acne; dosage level of 10 grams per day) is listed as “effective”.

In the case of [Zn] [Zinc], the effectiveness in acne (acne; dosage levels of 100-300 mg per day) is listed as “moderately effective”.

For CC1=C(/C=C/C(C)=C/C=C/C(C)=C\C(=O)O)C(C)(C)CCC1 [isotretinoin], the sebum production (acne; administered orally) is listed as “decreasing sebum production”, the side effects (acne; in vivo, po) is listed as “potential to induce sever birth defects” and the effectiveness in acne (acne; oral administration) is listed as “proven effective in the vast majority of cases”.

In the case of CC1=C(/C=C/C(C)=C/C=C/C(C)=C/CO)C(C)(C)CCC1 [micellized Vitamin A, Vitamin A], the toxicity (acne; in vivo) is given as “known toxicity” and the effectiveness in acne (acne; very high doses) is given as “moderately effective”.

For “thymosin α1 (SDAAVDTSSEITTKDLKEKKEVVEEAEN; not fully specified (N-terminus); ends and bridges not checked; UniProt P06454 2-29, looked up) [Tα1, an immunomodulatory peptide of 28 amino acids]”, the survival rate [1] is listed as “increased survival rate”, the “amount of interferon (IFN) produced” value (Newcastle disease virus) is listed as “significant rise” and the “resistance to infection with Candida albicans” value (Candida albicans) is listed as “increased resistance”. For the same compound, the “protection against opportunistic infections” value [2] was “protect”.
